Literature values, collected in paper PMC5812370 (Biochemistry, 2017).

Assays:
[1] = target: uPAR·uPA protein–protein interaction (Homo sapiens, UniProt Q03405)
uPAR = uPAR (Homo sapiens, UniProt Q03405)
Sequence of uPAR (Q03405 23-305 limits assumed): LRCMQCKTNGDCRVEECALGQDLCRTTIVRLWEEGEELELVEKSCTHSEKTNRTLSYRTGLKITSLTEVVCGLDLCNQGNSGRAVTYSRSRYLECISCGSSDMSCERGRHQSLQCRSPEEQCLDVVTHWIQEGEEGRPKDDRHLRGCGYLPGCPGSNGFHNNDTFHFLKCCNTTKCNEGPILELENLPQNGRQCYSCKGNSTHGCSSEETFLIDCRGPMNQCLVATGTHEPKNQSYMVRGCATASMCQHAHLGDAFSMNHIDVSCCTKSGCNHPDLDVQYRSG

Sequence of uPAR·uPA protein–protein interaction (Q03405 23-305 limits assumed): as above

Compound: O=C(O)c1cccc(Nc2cc(N3CCCCCC3)c3noc4c3c2C(=O)c2ccccc2-4)c1 [Compound 2]
- IC50 for inhibition of the uPAR·uPA complex (in words) [1]: single-digit micromolar
- binding affinity to uPAR (in words) (uPAR): submicromolar
